# Experiments:
# Type in all cases: cell-based, human
# [1] = tested on: pRb; assay: High resolution profiling (P-FILM) of pRb in MDA MB-231 cells; conditions: 100 μg/mL, 48 and 72 hours
# Procedure: Both p53 and pRb contain multiple phosphorylation sites, and evaluating each site separately provides a more accurate indication of each protein's potential function. Therefore, a high resolution functional profiling of the proteins was performed using P-FILM technology (20/20 Gene Systems, Inc.).
# The same protein samples as those used for PDVF membrane blotting were used. Ten μg of each protein sample of MDA MB-231 cells, and in some cases MDA MB-468 and MCF-7 cells, treated with 100 μg /mL of pentamer or DMSO-treated controls, were separated by PAGE on 4-20% gradient gels (BioRad). Proteins were transferred on a stack of ten membranes, according to manufacturer's instructions (20/20 Gene Systems, Inc.). The membranes were probed with antibodies recognizing total and phosphorylated p53 (p53Ser6, Ser9, Ser15, Ser20, Ser37, Ser46 and Ser392) at 1:1000 dilution as recommended by the manufacturer (Cell Signaling). The secondary antibody used in all cases was anti-rabbit polyclonal 1:2000 (Amersham). Signals were visualized on BIOMAX MR film (Kodak). The profiling of pRb was done using anti-phospho pRb (Ser780, Ser 795 and Ser 807/811) and anti-pRb polyclonal antibody (Cell Signaling) at a 1:1000 dilution. The secondary antibody used in all cases was anti-rabbit at 1:2000 dilution (Amersham). Image analysis was performed with Kodak 1D image analysis software. […]
# [2] = tested on: AIN4 cells; assay: Mitochondrial membrane potential depolarization (ApoAlert, flow cytometry)
# Procedure: (§1) Mitochondrial membrane potential was determined using ApoAlert™ Mitochondrial Membrane Sensor Kit (Clonetech Inc., Palo Alto, Calif.). The MDA MB-231, MCF-7, MDA MB-468, MDA MB-436, SKBR-3, MCF-10A, MCF-10A-c-Myc and AIN4 cells were grown, in appropriate media, to 60-70% confluence in 25 cm^2 dishes. The following day, the complete media was replaced with complete media containing (i) pentamer (100 μg/mL, or in some cases with 25 μg/mL), (ii) media with DMSO, or (iii) media only. Initially, cells were grown in the presence of pentamer for 1, 2, 3, 6, 12 and 24 hrs but only 1, 2 and 6 hrs treatments were selected for subsequent studies. All floating and adherent cells were combined, and then the cells were aliquoted into flow cytometry tubes. Approximately, 1×10^6 cells per tube were analyzed, according to the manufacturer's instructions. Samples were analyzed at the Lombardi Comprehensive Cancer Center Core Flow Cytometry Shared Resource Facility.
# [3] = tested on: MDA MB-231 cells; assay: as above
# Procedure: as §1
# [4] = tested on: normal mortal HMECs; assay: Crystal violet cellular proliferation assay; conditions: 100 μg/mL
# From the text: Immortalized human mammary epithelial cells (HMECs), MCF-10A, 184A1N4 and 184B5, normal, finite-life-span HMECs (1001-8, CC-2551) at passage 8, originally derived from mammoplasty breast tissues, were purchased from Clonetics-BioWhittaker, Inc. (Waskersville, Md.). Cell lines generated by introduction of c-MYC, ErbB2 and RAS oncogene into MCF-10A cells (MCF-10A-ErbB2/Ras cells and MCF-10A-c-Myc) were also used.
# Normal mortal HMECs were maintained according to the supplier's instructions in mammary epithelial cell growth medium (CC-3152) (Clonetics) supplemented with 52 μg of bovine pituitary extract per ml, 10 ng/mL of human EGF, 5 μg/mL of insulin, and 0.5 μg/mL of hydrocortisone and were grown in 37° C. incubators with low (0.1 to 0.2%) CO2 settings.
# One×10^3 cells per well were seeded in 96 well dishes (Coming Costar, Cambridge, Mass.). Primary cultures of HMECs, A1N4 and 184B5 cells were evaluated at two different cell densities (seeded at 1×10^3 and 2×10^3 per well). […]
# Cells were treated for 1, 2, 3, 6, 8 and 10 days, but in some cases, the samples were collected at days 2, 3, 4, 7 and 10 post-treatment. […] The optical density (OD) of samples was read at 550 nm on an Ultramark Microplate Imagining System (BioRad, Philadelphia, Pa.). […] Statistical significance was determined using the t test analysis.
# [5] = pentamer-treated, average of three experiments
structure (smiles),measurement,setting,value
"Oc1cc(O)c2c(c1)O[C@H](c1ccc(O)c(O)c1)[C@H](O)[C@H]2c1c(O)cc(O)c2c1O[C@H](c1ccc(O)c(O)c1)[C@H](O)[C@H]2c1c(O)cc(O)c2c1O[C@H](c1ccc(O)c(O)c1)[C@H](O)[C@H]2c1c(O)cc(O)c2c1O[C@H](c1ccc(O)c(O)c1)[C@H](O)[C@H]2c1c(O)cc(O)c2c1O[C@H](c1ccc(O)c(O)c1)[C@H](O)C2 [pentamer, pentameric procyanidin]","phosphorylation of pRb on all tested residues (Ser780, Ser795 and Ser807/811)",[1],decrease
same,protein expression of endogenous pRb,[1],decrease
same,"MMP depolarization, Fold Increase over DMSO",[2],3.2
same,MMP depolarization (%),[2]; [5],20%
same,"MMP depolarization, Fold Increase over DMSO",[3],14.5
same,"depolarization of mitochondrial membrane, time course","[3]; 100 μg/mL, 1, 2 and 6 hours",time-dependent depolarization
same,"depolarization of mitochondrial membrane, dose response",[3]; 25 and 100 μg/mL,dose-dependent response
same,MMP depolarization (%),[3]; [5],58%
same,"growth inhibited, in comparison to DMSO-treated controls",[4],1.4 fold
